Results on 32 compounds are retold here after PubChem BioAssay AID588548 (Broad Institute, 2011).

SMILES strings stand for the structures.

The target in the assay is Scavenger receptor class B member 1 (Mus musculus) (UniProt Q61009). Put plainly: SR-BI-mediated DiI-HDL uptake inhibitors, dose response, ldlA[mSR-BI] CHO cells, powder samples, set 4 (AID 588548). The settings on record: DiI-HDL uptake fluorescence, 3 h.
Sequence of Scavenger receptor class B member 1 (Mus musculus) (Q61009 whole entry, looked up): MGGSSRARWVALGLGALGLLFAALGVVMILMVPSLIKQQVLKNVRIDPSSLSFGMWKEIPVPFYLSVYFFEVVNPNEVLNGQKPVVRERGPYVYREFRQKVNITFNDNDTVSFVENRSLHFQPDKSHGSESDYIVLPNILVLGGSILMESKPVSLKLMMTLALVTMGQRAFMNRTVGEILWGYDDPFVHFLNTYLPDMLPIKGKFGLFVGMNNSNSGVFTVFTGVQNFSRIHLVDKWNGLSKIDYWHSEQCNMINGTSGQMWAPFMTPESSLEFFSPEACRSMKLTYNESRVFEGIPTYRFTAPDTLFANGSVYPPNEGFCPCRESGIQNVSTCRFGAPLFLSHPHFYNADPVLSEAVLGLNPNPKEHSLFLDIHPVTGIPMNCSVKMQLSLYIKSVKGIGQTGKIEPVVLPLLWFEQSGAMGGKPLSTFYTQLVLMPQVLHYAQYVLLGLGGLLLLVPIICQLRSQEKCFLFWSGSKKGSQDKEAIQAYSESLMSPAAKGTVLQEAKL
As to `COc1ccc(-c2nnn(CC(=O)N(CC(=O)NC3CCCC3)C3CCCCC3)n2)cc1OC`, the AC50 is under 0.015 µM.
For `CCC(=O)N1CCc2cc(-c3csc(NC(=O)c4cc5cccnc5o4)n3)ccc21` the value was 0.0453 µM.
For the compound `COCC(=O)N1CCc2cc(-c3csc(NC(=O)c4cc(OC)cc(OC)c4)n3)ccc21`, the AC50 is under 0.015 µM.
For `CCC(=O)Nc1ccc(-c2csc(NC(=O)c3ccco3)n2)cc1` the value was 1.92 µM; for `CC(C(=O)NC1CCCC1)N(C(=O)Cn1nnc(-c2ccc3c(c2)OCO3)n1)C1CCCCC1` (configuration not stated), under 0.015 µM; for `CC(C(=O)NC1CCCC1)N(C(=O)Cn1nnc(-c2ccc(Cl)c(Cl)c2)n1)C1CCCCC1` (configuration not stated), 0.25 µM.
For `CCC(=O)N1CCc2cc(-c3csc(NC(=O)c4cc(OC)cc(OC)c4)n3)ccc21` the value was 0.0295 µM; for `CCC(=O)N1CCc2cc(-c3csc(N(C)C(=O)c4cc(OC)cc(OC)c4)n3)ccc21`, 0.05 µM.
Take `O=C(Nc1nc(-c2ccc3c(c2)CCN3)cs1)c1ccco1`: the AC50 was under 0.015 µM.
For the compound `COc1cc(OC)cc(C(=O)Nc2nc(-c3ccc4[nH]ccc4c3)cs2)c1`, the AC50 was 0.0505 µM.
For `CC(C(=O)NC1CCCC1)N(C(=O)Cn1nnc(-c2ccc3c(c2)OC(F)(F)O3)n1)C1CCCCC1` (configuration not stated) the value was 0.0635 µM; for `COC(=O)N1CCc2cc(-c3csc(NC(=O)c4cc(OC)cc(OC)c4)n3)ccc21`, 0.072 µM; for `CC(C)(C)OC(=O)N1CCc2cc(-c3noc(NC(=O)c4ccco4)n3)ccc21`, 14.6 µM.
Take `COc1cc(OC)cc(C(=O)Nc2nc(-c3ccc4c(c3)CCN4C(=O)CN(C)C)cs2)c1`: the AC50 was under 0.015 µM.
With `COc1ccc(-c2cc(CC(=O)N(C3CCCCC3)C(C)C(=O)NC3CCCC3)no2)cc1OC` (configuration not stated) the figure was 0.0285 µM; with `CCC(=O)N1CCc2cc(-c3csc(NC(=O)c4cccc(OC(F)(F)F)c4)n3)ccc21`, 0.0185 µM; with `CCCN1CCc2cc(-c3csc(NC(=O)c4cc(OC)cc(OC)c4)n3)ccc21`, 0.0517 µM.
For `CC(C(=O)NC1CCCC1)N(C(=O)Cn1nnc(-c2ccc3c(c2)OCO3)n1)C1CCOCC1` (configuration not stated), the AC50 is 3.18 µM.
For `CCC(=O)Nc1ccc(-c2csc(NC(=O)c3cccc(OC)c3)n2)cc1`, the AC50 was 0.0993 µM.
For the compound `CCC(=O)Nc1ccc(-c2csc(N)n2)cc1`, the AC50 was 8.84 µM.
In the case of `CCC(=O)N1CCc2cc(-c3csc(NC(=O)c4cc(OC)c(OC)c(OC)c4)n3)ccc21`, the AC50 is under 0.015 µM.
Turning to `CCCCCCC1CCC/C1=N\NC(N)=S` (configuration not stated), the AC50 is under 0.015 µM.
As to `O=C(CN(C(=O)Cn1nnc(-c2ccc(Cl)c(Cl)c2)n1)C1CCCCC1)NC1CCCC1`, the AC50 was 0.302 µM.
With `CCC(=O)N1CCc2cc(-c3csc(/N=C(/OC)c4cc(OC)cc(OC)c4)n3)ccc21` the figure was 1.02 µM; with `COc1cc(OC)cc(C(=O)Nc2nc(-c3ccc4c(c3)CCN4)cs2)c1`, 0.103 µM; with `CCNC(=O)N1CCc2cc(-c3csc(NC(=O)c4cc(OC)cc(OC)c4)n3)ccc21`, under 0.015 µM.
On to `COc1cc(OC)cc(C(=O)Nc2nc(-c3ccc4c(c3)CCN4C(C)=O)cs2)c1`, for which the AC50 is 0.0249 µM.
With `O=C(CN(C(=O)Cn1nnc(-c2ccc3c(c2)OCO3)n1)C1CCCCC1)NC1CCCC1` the figure was under 0.015 µM.
With `O=C(CN(C(=O)Cn1nnc(-c2ccc3c(c2)OC(F)(F)O3)n1)C1CCCCC1)NC1CCCC1` the figure was 0.026 µM.
With `COc1ccc(-c2nc(CC(=O)N(C3CCCCC3)C(C)C(=O)NC3CCCC3)cs2)cc1OC` (configuration not stated) the figure was 5.26 µM.
With `CCC(=O)N1CCc2cc(-c3csc(NC(=O)c4ccco4)n3)ccc21`, the AC50 was 0.0286 µM.
For `COc1cc(OC)cc(C(=O)Nc2nc(-c3ccc4c(c3)CCN4C(=O)OC(C)(C)C)cs2)c1` the value was under 0.015 µM.

In general, AC50 refers to the concentration at which the activity in the assay is half-maximal.
